Laboratory results from ChEMBL document CHEMBL1201862, “PubChem BioAssay data set” (2004).
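96-well plates; 48 h exposure; 5 concentrations. Endpoints by linear interpolation between flanking doses. Not reached: highest tested concentration assigned. At the GI50, growth is halved.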 Active and inactive are the calls of the source. No stated cut-off is given here; in the data, active = GI50 up to about 1.1 µM and inactive = higher.

How the values were obtained:
Test in all cases: NCI anticancer screen, dose series, 48 h
[1] = tested on: HOP-18
[2] = tested on: SF-268
[3] = tested on: SK-OV-3
[4] = tested on: SF-295
[5] = tested on: HT-29
[6] = tested on: XF498
[7] = tested on: UACC-257
[8] = tested on: SR
[9] = tested on: DMS-114
[10] = tested on: SK-MEL-28
[11] = tested on: HL-60
[12] = tested on: KM12
[13] = tested on: CAKI-1
[14] = tested on: SN12C
[15] = tested on: COLO 205
[16] = tested on: RXF 631
[17] = tested on: SNB-78
[18] = tested on: NCI-H23
[19] = tested on: OVCAR-5
[20] = tested on: SNB-19
[21] = tested on: LOX IMVI
[22] = tested on: MOLT-4
[23] = tested on: U-251
[24] = tested on: ACHN
[25] = tested on: HCC 2998
[26] = tested on: RPMI-8226
[27] = tested on: SW-620
[28] = tested on: A549
[29] = tested on: SK-MEL-2
[30] = tested on: A498
[31] = tested on: HOP-92
[32] = tested on: SNB-75
[33] = tested on: Malme-3M
[34] = tested on: DMS-273
[35] = tested on: RXF 393
[36] = tested on: TK-10
[37] = tested on: NCI-H522
[38] = tested on: OVCAR-4
[39] = tested on: HCT-15
[40] = tested on: NCI-H226
[41] = tested on: SK-MEL-5
[42] = tested on: LXFL 529
[43] = tested on: NCI-H460
[44] = tested on: HCT-116
[45] = tested on: DLD-1
[46] = tested on: CCRF-CEM
[47] = tested on: Hs-578T
[48] = tested on: KM-20L2
[49] = tested on: 786-0
[50] = tested on: NCI/ADR-RES
[51] = tested on: T47D
[52] = tested on: SF-539
[53] = tested on: BT-549
[54] = tested on: M19-MEL
[55] = tested on: MCF7
[56] = tested on: OVCAR-3
[57] = tested on: EKVX
[58] = tested on: MDA-MB-435
[59] = tested on: PC-3
[60] = tested on: MDA-N
[61] = tested on: IGROV-1
[62] = tested on: DU-145
[63] = tested on: K562
[64] = tested on: M14
[65] = tested on: UACC-62
[66] = tested on: OVCAR-8
[67] = tested on: MDA-MB-231
[68] = tested on: HOP-62
[69] = tested on: UO-31

Measured: GI50

CN1NC(c2ccccc2)=C(C#N)C(=O)CC1c1ccc(F)cc1 (stereo not given)
inactive: [1] > 100 µM | [2] > 100 µM | [3] > 100 µM | [4] > 100 µM | [5] > 100 µM | [6] > 100 µM | [7] > 100 µM | [8] > 100 µM | [9] > 100 µM | [10] > 100 µM | [11] > 100 µM | [12] > 100 µM | [13] > 100 µM | [14] > 100 µM | [15] > 100 µM | [16] > 100 µM | [17] > 100 µM | [18] > 100 µM | [19] > 100 µM | [20] > 100 µM | [21] > 100 µM | [22] > 100 µM | [23] > 100 µM | [24] > 100 µM | [25] > 100 µM | [26] > 100 µM | [27] > 100 µM | [28] > 100 µM | [29] > 100 µM | [30] > 100 µM | [31] > 100 µM | [32] 41.3 µM | [33] > 100 µM | [34] > 100 µM | [35] > 100 µM | [36] > 100 µM | [37] 62.4 µM | [38] > 100 µM | [40] > 100 µM | [41] > 100 µM | [42] > 100 µM | [43] > 100 µM | [44] > 100 µM | [45] > 100 µM | [46] > 100 µM
> 100 µM: [39]

COc1ccc2nc3ccccc3c(NCCCN(C)CCCl)c2c1
active: [2] 0.155 µM | [3] 0.406 µM | [4] 0.371 µM | [47] 0.188 µM | [5] 0.0998 µM | [48] 0.17 µM | [49] 0.104 µM | [50] 0.313 µM | [6] 0.212 µM | [51] 0.0358 µM | [7] 0.644 µM | [52] 0.249 µM | [8] < 0.0128 µM | [9] 0.311 µM | [10] 0.521 µM | [11] 0.0614 µM | [12] 0.426 µM | [13] 0.231 µM | [14] 0.16 µM | [15] 0.147 µM | [16] 0.23 µM | [17] 0.156 µM | [18] 0.135 µM | [54] 0.353 µM | [19] 0.497 µM | [55] 0.213 µM | [56] 0.682 µM | [20] 0.601 µM | [21] 0.138 µM | [57] 0.938 µM | [22] < 0.0133 µM | [23] 0.287 µM | [58] 0.298 µM | [24] 0.105 µM | [25] 0.388 µM | [59] 0.202 µM | [26] 0.0817 µM | [27] 0.0497 µM | [28] 0.235 µM | [29] 0.557 µM | [30] 0.458 µM | [31] 0.185 µM | [60] 0.311 µM | [32] 0.224 µM | [33] 0.449 µM | [34] 0.153 µM | [35] 0.284 µM | [61] 0.328 µM | [62] 0.333 µM | [36] 0.859 µM | [63] 0.136 µM | [37] 0.101 µM | [38] 0.324 µM | [64] 0.453 µM | [40] 0.226 µM | [41] 0.365 µM | [42] 0.0995 µM | [65] 0.23 µM | [66] 0.142 µM | [43] 0.0791 µM | [44] 0.0877 µM | [67] 0.641 µM | [45] 0.233 µM | [68] 0.959 µM | [69] 0.592 µM | [46] 0.064 µM
inactive: [53] 1.22 µM
0.444 µM: [39]

Cc1cn(C2CC(N(C)C)C(CO)O2)c(=O)[nH]c1=O (stereo not given)
inactive: [2] > 100 µM | [3] > 100 µM | [49] > 100 µM | [6] > 100 µM | [52] > 100 µM | [8] > 100 µM | [9] > 100 µM | [10] > 100 µM | [11] > 100 µM | [13] > 100 µM | [14] > 100 µM | [15] > 100 µM | [16] > 100 µM | [17] > 100 µM | [18] > 100 µM | [54] > 100 µM | [22] > 100 µM | [24] > 100 µM | [25] > 100 µM | [26] > 100 µM | [29] > 100 µM | [30] > 100 µM | [31] > 100 µM | [32] > 100 µM | [33] > 100 µM | [34] > 100 µM | [61] > 100 µM | [63] > 100 µM | [37] > 100 µM | [38] > 100 µM | [64] > 100 µM | [40] > 100 µM | [42] > 100 µM | [65] > 100 µM | [44] > 100 µM | [45] > 100 µM | [68] > 100 µM | [69] > 100 µM | [46] > 100 µM

CCC1CCCCN1CC(C(C)=O)C(c1ccccc1)c1c(O)c2ccccc2oc1=O (stereo not given)
inactive: [2] > 100 µM | [3] > 100 µM | [4] > 100 µM | [5] > 100 µM | [48] > 100 µM | [49] > 100 µM | [6] > 100 µM | [7] > 100 µM | [52] > 100 µM | [8] 80.7 µM | [9] > 100 µM | [10] > 100 µM | [11] 76.4 µM | [12] > 100 µM | [13] > 100 µM | [14] > 100 µM | [15] 76.6 µM | [16] > 100 µM | [17] > 100 µM | [18] > 100 µM | [54] > 100 µM | [19] 50.7 µM | [56] > 100 µM | [20] > 100 µM | [21] > 100 µM | [57] > 100 µM | [22] > 100 µM | [23] > 100 µM | [24] > 100 µM | [26] 69.5 µM | [27] > 100 µM | [28] > 100 µM | [29] > 100 µM | [30] > 100 µM | [32] 6.87 µM | [33] > 100 µM | [34] > 100 µM | [35] > 100 µM | [61] > 100 µM | [36] > 100 µM | [63] > 100 µM | [37] > 100 µM | [38] > 100 µM | [64] > 100 µM | [40] 18 µM | [41] > 100 µM | [65] 82.2 µM | [66] > 100 µM | [43] > 100 µM | [44] > 100 µM | [45] > 100 µM | [68] > 100 µM | [69] > 100 µM | [46] > 100 µM
> 100 µM: [39]

COC(=O)C1=C(C(=O)OC)C2C=CC1C1C(Cl)=C(Cl)C21 (stereo not given)
inactive: [1] > 100 µM | [2] > 100 µM | [3] > 100 µM | [4] > 100 µM | [5] > 100 µM | [48] > 100 µM | [49] > 100 µM | [7] > 100 µM | [52] > 100 µM | [9] > 100 µM | [10] > 100 µM | [11] > 10 µM | [12] > 100 µM | [13] > 100 µM | [14] > 100 µM | [15] > 100 µM | [16] > 100 µM | [18] > 100 µM | [54] > 100 µM | [19] > 100 µM | [56] > 100 µM | [21] > 100 µM | [57] > 100 µM | [22] > 100 µM | [23] > 100 µM | [24] > 100 µM | [25] > 100 µM | [26] > 100 µM | [27] > 100 µM | [28] > 100 µM | [29] > 100 µM | [31] 40.1 µM | [32] > 100 µM | [33] > 100 µM | [34] > 100 µM | [35] > 100 µM | [61] > 100 µM | [36] > 100 µM | [63] > 100 µM | [37] > 100 µM | [38] > 100 µM | [64] > 100 µM | [41] 88.7 µM | [42] > 100 µM | [65] > 100 µM | [66] > 100 µM | [43] > 100 µM | [45] > 100 µM | [68] > 100 µM | [69] > 100 µM | [46] > 100 µM
> 100 µM: [39]
